Reference: patent US20070042938A1, “Use of dpiv and apn inhibitors for the treatment of dermatalogical diseases involving the hyperproliferation and modified differentiation conditions of fibroblasts” (priority 2003, published 2007)

Test system: human fibroblasts
Test: DNA synthesis of human fibroblasts (3[H]-thymidine incorporation)
Format: cell-based
Settings: fibroblasts of healthy donors, 48 h incubation with inhibitor, then 3[H]-methyl thymidine for further 6 h; dose-dependent (FIG. 3)
Description: Fibroblasts of healthy donors were incubated for 48 h together with the above-mentioned inhibitors, and the DNA synthesis was determined subsequently by a measurement of the ^3[H]-thymidine incorporation, as described by Reihold et al. (Reinhold D et al.: Inhibitors of dipeptidyl peptidase IV induce secretion of transforming growth factor β1 in PWM-stimulated PBMNC and T cells, Immunology 1997, 91: 354-360).
For measuring the dose-dependent effect of inhibitors of DP IV (Lys[Z(NO2)] thiazolidide) and of aminopeptidase N (Actinonin) on the DNA synthesis of human fibroblasts, cells were incubated for 48 h with the indicated concentrations of the inhibitors. Subsequently, ^3[H]-Methyl thymidine was added to the culture medium, and the amount of ^3[H]-thymidine incorporated into the DNA was measured after further 6 h.

Structure (SMILES) | inhibition of the DNA synthesis of human fibroblasts
CCCCC[C@H](CC(=O)NO)C(=O)N[C@H](C(=O)N1CCC[C@H]1CO)C(C)C [Actinonin] | inhibited
N[C@@H](CCCCNC(=O)OCc1ccc([N+](=O)[O-])cc1)C(=O)N1CCSC1 [Lys[Z(NO2)] thiazolidide] | inhibited
